Assay results as given in a melting point compilation (Tetko et al.; mined from patent text by program, amines drawn as free bases though some values may be those of a salt).

| SMILES | melting point [°C] |
| --- | --- |
| Cc1cc(C#N)cc(C(=O)NC(C)C)c1NC(=O)c1cc(Br)nn1-c1ccccc1Cl | 145 to 149 |
| CC(C)(C)C(NC(=O)c1ccc(Cl)cc1)Nc1c(Nc2cnc(F)c(Br)c2)c(=O)c1=O (configuration not stated) | 249 to 252 |
| O=[N+]([O-])c1cn2c(n1)O[C@@H](COc1ccc(N3CCC(Cc4ccc(OC(F)(F)F)cc4)CC3)cc1)C2 | 160 to 164 |
| CC(C)(C)c1ccc(O)c(C2=CCCCC2)c1 | 90 to 93 |
| COc1ccc(CCc2ccc(NC=O)cc2)cc1OC | 128 to 130 |
| COC(=O)c1ccc(I)cc1N | 63 to 67 |
| CCCCn1nc2c(N)nc3ccccc3c2c1CC(C)C | 165 to 166 |
| CCc1nc(N)nc(N)c1N1CCN(Cc2ccccc2)CC1 | 174 to 175 |
| CN1CN(C(=O)c2c(F)cccc2F)C(=O)N(c2ccc(S(=O)C(F)F)cc2F)C1 (configuration not stated) | 50 to 55 |
| C=CCN1CC(C(=O)Nc2cc(C)nc(C)n2)CC2c3cccc4[nH]cc(c34)CC21 (configuration not stated) | 182 to 186 |
| [N-]=[N+]=C(c1ccccc1)c1ccc(COCCNC(=O)Nc2ccccc2)cc1 | 111 to 115 |
| NNc1ccnc2c(NC(=O)c3c(Cl)cccc3Cl)cc(Cl)cc12 | 142 to 150 |
| CC(=O)c1c(C)cc(NC(C)(C)C)nc1NC(C)(C)C | 127 to 128 |
| Nc1ncnc2c1c(-c1cn[nH]c1)nn2Cc1oc2ccccc2c(=O)c1-c1ccccc1 | 235 to 237 |
| O=C(O)c1ccc(OCC2CC(=O)N(c3ccc(OC4CCCCC4O)cc3)C2)cc1 (configuration not stated) | 203 to 208 |
| Cc1nc2cc(C(F)(F)F)c(Cl)c([N+](=O)[O-])c2n1N(C)C | 160 to 162 |
| COc1cc(OC)cc(N2CCN(C(=O)N(C)c3cc4ccccc4nc3OC)CC2)c1 | 88 to 89 |
| CC(=O)OCC1OC(c2ccc(F)c(Cc3ccc(Br)s3)c2)C(OC(C)=O)C(OC(C)=O)C1OC(C)=O (configuration not stated) | 127 to 129 |
| C=CCOc1ccc(C#N)c(OC(C(=O)OC)c2ccccc2C)c1 (racemic) | 98 to 99 |
| CC1=CC(=O)CC(C)(C)C1(O)C/C=C(C)/C=C\O (configuration not stated) | 127 to 129 |
| C=CCOc1ccc(OC(C(=O)C(C)(C)C)n2cncn2)cc1 (configuration not stated) | 66 |
| O=S(=O)(Nc1cccc(CCOCc2csc(-c3ccccc3)n2)c1)C(F)(F)F | 112 to 113 |
| O=C1c2ccccc2C(=O)N1CCCCOc1cccc2c1SCCC2 | 116 |

| SMILES | melting point [°C] |
| --- | --- |
| CC(C)(C)c1cc(N(C(=O)CCCC(=O)O)c2ccccc2)cc(C(C)(C)C)c1O | 168 to 170 |
| COc1cc(C(C)NC(=O)OCC2c3ccccc3-c3ccccc32)c([N+](=O)[O-])cc1OCCCC(=O)O (configuration not stated) | 200 to 201 |
| CC1(C)OC(=O)Nc2ccc(-c3ccc(F)cc3)cc21 | 232 to 233 |
| COC(=O)C[C@H](O)CC(=O)C=Cc1c(-c2ccc(F)cc2)c(-c2ccccc2)c(C(=O)NCc2ccc(F)cc2)n1C(C)C | 62 to 63 |
| CCCc1c(OCCCOc2ccc(CC(=O)O)cc2F)ccc(C(C)=O)c1O | 121 to 123 |
| CCOC(=O)c1ccccc1-n1cnc2c(C)c(C(=O)OCC)c(C)cc2c1=O | 116 to 117 |
| C[C@@H](C(N)=O)c1ccc(NS(=O)(=O)c2ccc(Cl)cc2)cc1 | 150 to 153 |
| COc1ccc(CNC(=O)c2cc([N+](=O)[O-])ccc2N[C@@H](CO)CCSC)cc1OC | 150 to 152 |
| CCOC(=O)Cc1c(C(=O)OCC)[nH]c2ccc(F)cc12 | 128 to 130 |
| COc1cc2nc(N3CCN(c4ccnc(N5CCOCC5)n4)CC3)nc(N)c2cc1OC | 232 to 233 |
| CC1(C)CCC(C)(C)c2cc(-c3cc(-c4ccc(C(=O)O)cc4)ccc3-c3ccccc3O)ccc21 | 161 to 163 |
| CCOC(=O)c1c(C(F)(F)F)nc2cc(C(F)(F)F)ccc2c1O | 156 |
| Brc1cn2ccccc2n1 | 83 to 85 |
| O=C(NC1C(=O)N(CC23CC4CC(CC(C4)C2)C3)c2ccc(F)cc2N(c2ccccc2)C1=O)Oc1ccccc1 (configuration not stated) | 156 to 159 |
| C1=CCC23C=CC=CN2c2nccn2C3=C1 (configuration not stated) | 258 to 260 |
| O=c1[nH]c(NCCCn2ccnc2)nc2c1ncn2C1CC(O)C(CO)O1 (configuration not stated) | 245 to 247 |
| NCC(O)C1=CC2(CC2)c2ccccc21 (configuration not stated) | 133 to 134 |
| OCc1cccc2c1CCCN2 | 120 to 122 |
| NC(=O)[C@H]1[C@H](CS)N(Cc2ccccc2)C(=O)N1Cc1ccccc1 | 119 to 122 |
| N=C(NC(c1ccccc1)c1ccccc1)N1CCOCC1 | 122 to 124 |
| CCCSc1ccc2c3c(cccc13)C(=O)N2 | 145 to 148 |
| CC(=O)OCCn1cc(C2=C(c3cn(C)c4ccccc34)C(=O)OC2=O)c2ccccc21 | 198 to 199 |

More lines, now with the values ahead:

| melting point [°C] | SMILES |
| --- | --- |
| 130 to 132 | CC(C(N)=O)N1CCN(c2ccccn2)CC1 (configuration not stated) |
| 230 to 231 | FC(F)C(F)(F)Sc1nc2c3ccccc3c3ccccc3c2[nH]1 |
| 166 to 167 | Cc1oc(-c2ccccc2)nc1COc1ccc(COc2ccc(CC(=O)O)cc2)cc1 |
| 120 to 122 | COc1nc(C(=O)NC(C)(C)C)c(C(=O)O)s1 |
| 230 | O=C(O)c1ccccc1OCCN1CCC(c2c[nH]c3ccccc23)CC1 |
| 245 to 247 | Cc1ccc(-c2ccc(N3CCCN(c4ccc(-c5ccc(C)cc5)cn4)CC3)nc2)cc1 |
| 135 | CCc1nc2c(o1)C(=O)C(C)=C(NCCN(C)C)C2=O |
| 137 to 140 | O=C(Cc1cccc2ccccc12)N1CC=C(c2cccc(C(F)(F)F)c2)CC1 |
| 148 to 151 | O=C(O)c1cc(S(=O)CC(=O)c2ccccc2)cc(C(F)(F)F)c1 (configuration not stated) |
| 95 to 96 | Cc1cc(C(=O)OC(CC(C)C)C(=O)O)cc(C)n1 (racemic) |
| 95 | CCOC(=O)CCc1cc(Cl)ccc1C(=O)CCCNC(=O)CCCNC(C)=O |
| 160 to 162 | Nc1ccc(SCCn2cnnc2)cc1 |
| 215 to 217 | Cc1cc2oc(=O)c(NC(=O)Nc3ccc(F)cc3F)c(-c3ccccc3C)c2cc1C |
| 66 to 68 | O=C(NC12CC3CC(CC(C3)C1)C2)OCc1cccs1 |
| 145 to 147 | Cc1cc(C)nc(SCc2nccc(SCCCSc3ccc4ncc([N+](=O)[O-])n4n3)c2C)n1 |
| 230 to 231 | O=C(NC1CCC(OC(=O)N2CCC3(CCCC3)CC2)CC1)C1CCN(C(=O)Oc2ccc(Oc3ccccc3)cc2)CC1 (configuration not stated) |
| 151 to 152 | OC(C1=NCCN1)(c1ccccn1)c1cccs1 (configuration not stated) |
| 256 to 257 | CCN1c2ncccc2C(=O)N(C)c2ccc(-c3c[nH]c(C(=O)O)c3)nc21 |
| 204 to 206 | CN1Cc2nc3ccccc3c(=O)n2-c2ccccc2C1=O |
| 158 | CN(c1cccc2cc(C3=NCC(CC(=O)N4CCS(=O)(=O)CC4)S3)[nH]c12)S(=O)(=O)c1cccs1 (configuration not stated) |
| 172 to 174 | COc1cccc(CNC(=O)C(C)(C)COc2cccc3nc(C)c(C(=O)O)c(N)c23)c1 |
| 127 to 129 | CC(=O)SC(CC(=O)c1ccc(Sc2ccc(C)cc2)cc1)C(=O)O (configuration not stated) |
| 105 to 108 | O=c1c(F)cn(C2CCCO2)c(=O)n1C1CCCO1 (configuration not stated) |
| 105 to 106 | O=Cc1cccc(OCc2ccc3ccccc3c2)c1 |
| 148 to 150 | CCCc1nc2c(N)nc(C)c(C)c2n1CCCC(C)=O |
| 102 to 103 | CCn1ncc2nc(C(=O)OCC#N)c(-c3ccccc3)nc21 |

| melting point [°C] | SMILES |
| --- | --- |
| 170 | O=C(c1ccccc1)n1c(=O)[nH]cc(F)c1=O |
| 181 to 184 | CCCc1nc2c(N)nc3cc(-c4ccc(F)cc4CN)ccc3c2s1 |
| 86 to 90 | CCCCCCCCCCCCCCCCCCOc1cc(OCCCOc2ccccc2)cc(C(=O)N(CC(=O)O)CC(=O)O)c1 |
| 153 to 154 | Cc1cc(-c2cccc(C(F)(F)F)c2)n2ncc(C(=O)c3ccccc3)c2n1 |
| 123 to 124 | CCN(CC)C(=O)c1ccc2c(c1)C(=C(Cl)Cl)OC(C(Cl)(Cl)Cl)O2 (configuration not stated) |
| > 260 | Oc1nc2ccc(Cl)cc2nc1O |
| 50 to 52 | C=CC(=O)N1C(C)(C)CC(OC(=O)CCCC(C)(C)c2cc(OC)c(C(C)(C)CCCC(=O)OC3CC(C)(C)N(C(=O)C=C)C(C)(C)C3)cc2O)CC1(C)C |
| 144 to 146 | COc1ccccc1-c1c(NC(=O)OCc2ccccc2)oc(=O)c2ccccc12 |
| 204 to 207 | Cc1cc(O)n2nc(CN)nc2n1 |
| 249 to 250 | Fc1ccc(Nc2ncnc3cc(-c4ccoc4)ccc23)cc1Cl |
| 138 to 141 | Cc1cccc(N2CCCC2=O)c1CNc1cccn2c(C)c(C)nc12 |
| 63 to 64 | CCOC(=O)C(Cc1ccc(OCc2ccccc2)cc1)Oc1ccc(Cl)cc1 (configuration not stated) |
| 208 to 211 | CNC(Cc1c[nH]c2c(Cl)cccc12)C(=O)O (configuration not stated) |
| 188 to 192 | O=C(NCc1ccccc1)Nc1nnc(C(=O)OCc2ccccc2)s1 |
| 148 to 150 | CCCOc1ccc(C)cc1C(=N)OCC |
| 214 to 217 | C[C@]1(COc2ccc(N3CCN(Cc4ccc(OC(F)(F)F)cc4)CC3)cc2)Cn2cc([N+](=O)[O-])nc2O1 |
| 188 to 190 | CC(F)(F)C1(O)c2cc(Cl)ccc2Nc2ncccc21 (configuration not stated) |
| 85 to 89 | CC1(C)C(CC(Cl)(Cl)Cl)C1C(=O)O (configuration not stated) |
| 195 to 225 | C=CCOC(=O)C1=C2CCSC[C@@H]2[C@@H]2/C(=C\C)C(=O)N12 |
| 69 | CC(C)OC(=O)c1cc(-c2nn(C)c(C(F)(F)F)c2Cl)c(F)cc1Cl |
| 127 | Cc1coc(C(=O)c2ccc(F)c(F)c2Nc2ccc(I)cc2F)n1 |
| 132 to 133 | Cc1ccnc(CCOc2ccc(NC(=O)N(C)C)cc2)c1 |
| 119 to 120 | O=C(O)CCc1cccc(CCc2nc(-c3ccccc3)c(-c3ccccc3)o2)c1 |
| 159 to 161 | Cc1cc(C)c(CC(=O)c2ccc(C(C)C)c(OS(N)(=O)=O)c2C(C)C)c(C)c1 |
| 166 to 168 | Cc1cc(-c2c(-c3ccc(S(C)(=O)=O)cc3)cnn(-c3ccc(F)c(F)c3)c2=O)ccc1F |
| 165 to 167 | O=S(=O)(Nc1cccc(OCCc2ccc3ccccc3c2)c1)c1cccc2ccccc12 |
